In ChEMBL document CHEMBL1130041, “Halogenated 4-(phenoxymethyl)piperidines as potential radiolabeled probes for sigma-1 receptors: in vivo evaluation of [123I]-1-(iodopropen-2-yl)-4-[(4-cyanophenoxy)methyl]pip eri dine” (J Med Chem, 1997):

Columns and labels:
Rattus norvegicus [1] = species: Rattus norvegicus; assay: Biodistribution of [123I]-label in rat spleen was reported at 4 hr post injection. Value shown is %ID/g of tissue; assay type: ADME, organism-based; settings: in vivo
Rattus norvegicus [2] = species: Rattus norvegicus; assay: Biodistribution of [123I]-label in rat muscle was reported at 2 hr post injection. Value shown is %ID/g of tissue; assay type: ADME, organism-based; settings: in vivo
Rattus norvegicus [3] = species: Rattus norvegicus; assay: Biodistribution of [123I]-label in rat heart was reported at 1 hr post injection. Value shown is %ID/g of tissue; assay type: ADME, organism-based; settings: in vivo
Rattus norvegicus [4] = species: Rattus norvegicus; assay: Distribution of [123I]-label in rat brain (hippocampus) was reported at 60 min post injection. Value shown is %ID/g of tissue; assay type: ADME, organism-based; settings: in vivo, 1 h
Rattus norvegicus [5] = species: Rattus norvegicus; assay: Biodistribution of [123I]-label in rat lung was reported at 1 hr post injection. Value shown is %ID/g of tissue; assay type: ADME, organism-based; settings: in vivo
Rattus norvegicus [6] = species: Rattus norvegicus; assay: Biodistribution of [123I]-label in rat lung was reported at 4 hr post injection. Value shown is %ID/g of tissue; assay type: ADME, organism-based; settings: in vivo
Rattus norvegicus [7] = species: Rattus norvegicus; assay: Biodistribution of [123I]-label in rat stomach was reported at 1 h post injection. Value shown is %ID/g of tissue; assay type: ADME, organism-based; settings: in vivo
Rattus norvegicus [8] = species: Rattus norvegicus; assay: Biodistribution of [123I]-label in rat liver was reported at 24 h post injection. Value shown is %ID/g of tissue; assay type: ADME, organism-based; settings: in vivo
Rattus norvegicus [9] = species: Rattus norvegicus; assay: Distribution of [123I]-label in rat brain (frontal cortex) was reported at 20 min post injection. Value shown is %ID/g of tissue; assay type: ADME, organism-based; settings: in vivo
Rattus norvegicus [10] = species: Rattus norvegicus; assay: Biodistribution of [123I]-label in rat thyroid was reported at 1 hr post injection. Value shown is %ID/organ; assay type: ADME, organism-based, Thyroid gland; settings: in vivo
Rattus norvegicus [11] = species: Rattus norvegicus; assay: Biodistribution of [123I]-label in rat blood was reported at 2 hr post injection. Value shown is %ID/g of tissue; assay type: ADME, organism-based; settings: in vivo
Rattus norvegicus [12] = species: Rattus norvegicus; assay: Distribution of [123I]-label in rat brain (diencephalon) was reported at 60 min post injection. Value shown is %ID/g of tissue; assay type: ADME, organism-based; settings: in vivo, 1 h
Rattus norvegicus [13] = species: Rattus norvegicus; assay: Distribution of [123I]-label in rat brain (striatum) was reported at 20 min post injection. Value shown is %ID/g of tissue; assay type: ADME, organism-based; settings: in vivo
Rattus norvegicus [14] = species: Rattus norvegicus; assay: Distribution of [123I]-label in rat brain (posterior cortex) was reported at 20 min post injection. Value shown is %ID/g of tissue; assay type: ADME, organism-based; settings: in vivo
Rattus norvegicus [15] = species: Rattus norvegicus; assay: Biodistribution of [123I]-label in rat muscle was reported at 0.33 hr post injection. Value shown is %ID/g of tissue; assay type: ADME, organism-based; settings: in vivo
Rattus norvegicus [16] = species: Rattus norvegicus; assay: Biodistribution of [123I]-label in rat kidneys was reported at 4 hr post injection. Value shown is %ID/g of tissue; assay type: ADME, organism-based, Kidney; settings: in vivo
Rattus norvegicus [17] = species: Rattus norvegicus; assay: Biodistribution of [123I]-label in rat brain was reported at 24 hr post injection. Value shown is %ID/organ; assay type: ADME, organism-based; settings: in vivo
Rattus norvegicus [18] = species: Rattus norvegicus; assay: Biodistribution of [123I]-label in rat liver was reported at 0.33 hr post injection. Value shown is %ID/g of tissue; assay type: ADME, organism-based; settings: in vivo
Sigma 2 receptor = assay: Receptor binding affinity against Sigma-2 receptor from guinea pig membranes; design: species or system Cavia porcellus
Rattus norvegicus [19] = species: Rattus norvegicus; assay: Biodistribution of [123I]-label in rat muscle was reported at 24 hr post injection. Value shown is %ID/g of tissue; assay type: ADME, organism-based; settings: in vivo
Rattus norvegicus [20] = species: Rattus norvegicus; assay: Biodistribution of [123I]-label in rat muscle was reported at 1 hr post injection. Value shown is %ID/g of tissue; assay type: ADME, organism-based; settings: in vivo
Rattus norvegicus [21] = species: Rattus norvegicus; assay: Biodistribution of [123I]-label in rat stomach was reported at 24 hr post injection. Value shown is %ID/g of tissue; assay type: ADME, organism-based; settings: in vivo
Rattus norvegicus [22] = species: Rattus norvegicus; assay: Biodistribution of [123I]-label in rat brain was reported at 1 hr post injection. Value shown is %ID/organ; assay type: ADME, organism-based; settings: in vivo
Rattus norvegicus [23] = species: Rattus norvegicus; assay: Distribution of [123I]-label in rat brain (cerebellum) was reported at 20 min post injection. Value shown is %ID/g of tissue; assay type: ADME, organism-based; settings: in vivo
Rattus norvegicus [24] = species: Rattus norvegicus; assay: Biodistribution of [123I]-label in rat lung was reported at 24 hr post injection. Value shown is %ID/g of tissue; assay type: ADME, organism-based; settings: in vivo
[25] = In Vitro binding affinity for 5-hydroxytryptamine 2 receptor
D(2) dopamine receptor = D(2) dopamine receptor (Homo sapiens, UniProt P14416); assay: In vitro binding affinity for Dopamine receptor D2
Rattus norvegicus [26] = species: Rattus norvegicus; assay: Biodistribution of [123I]-label in rat kidneys was reported at 0.33 hr post injection. Value shown is %ID/g of tissue; assay type: ADME, organism-based, Kidney; settings: in vivo
Rattus norvegicus [27] = species: Rattus norvegicus; assay: Distribution of [123I]-label in rat brain (cerebellum) was reported at 60 min post injection. Value shown is %ID/g of tissue; assay type: ADME, organism-based; settings: in vivo, 1 h
Rattus norvegicus [28] = species: Rattus norvegicus; assay: Biodistribution of [123I]-label in rat heart was reported at 2 hr post injection. Value shown is %ID/g of tissue; assay type: ADME, organism-based; settings: in vivo
Rattus norvegicus [29] = species: Rattus norvegicus; assay: Biodistribution of [123I]-label in rat liver was reported at 4 hr post injection. Value shown is %ID/g of tissue; assay type: ADME, organism-based; settings: in vivo
Rattus norvegicus [30] = species: Rattus norvegicus; assay: Biodistribution of [123I]-label in rat spleen was reported at 24 h post injection. Value shown is %ID/g of tissue; assay type: ADME, organism-based; settings: in vivo
Rattus norvegicus [31] = species: Rattus norvegicus; assay: Biodistribution of [123I]-label in rat brain was reported at 1 hr post injection. Value shown is %ID/g of tissue; assay type: ADME, organism-based; settings: in vivo
Rattus norvegicus [32] = species: Rattus norvegicus; assay: Biodistribution of [123I]-label in rat blood was reported at 24 hr post injection. Value shown is %ID/g of tissue; assay type: ADME, organism-based; settings: in vivo
Rattus norvegicus [33] = species: Rattus norvegicus; assay: Biodistribution of [123I]-label in rat blood was reported at 4 hr post injection. Value shown is %ID/g of tissue; assay type: ADME, organism-based; settings: in vivo
Rattus norvegicus [34] = species: Rattus norvegicus; assay: Distribution of [123I]-label in rat brain (diencephalon) was reported at 20 min post injection. Value shown is %ID/g of tissue; assay type: ADME, organism-based; settings: in vivo
Rattus norvegicus [35] = species: Rattus norvegicus; assay: Biodistribution of [123I]-label in rat blood was reported at 0.33 hr post injection. Value shown is %ID/g of tissue; assay type: ADME, organism-based; settings: in vivo
Rattus norvegicus [36] = species: Rattus norvegicus; assay: Distribution of [123I]-label in rat brain (medulla pons) was reported at 60 min post injection. Value shown is %ID/g of tissue; assay type: ADME, organism-based; settings: in vivo, 1 h
Rattus norvegicus [37] = species: Rattus norvegicus; assay: Biodistribution of [123I]-label in rat muscle was reported at 4 hr post injection. Value shown is %ID/g of tissue; assay type: ADME, organism-based; settings: in vivo
Rattus norvegicus [38] = species: Rattus norvegicus; assay: Biodistribution of [123I]-label in rat heart was reported at 4 hr post injection. Value shown is %ID/g of tissue; assay type: ADME, organism-based; settings: in vivo
Rattus norvegicus [39] = species: Rattus norvegicus; assay: Biodistribution of [123I]-label in rat liver was reported at 1 hr post injection. Value shown is %ID/g of tissue; assay type: ADME, organism-based; settings: in vivo
Rattus norvegicus [40] = species: Rattus norvegicus; assay: Biodistribution of [123I]-label in rat kidneys was reported at 24 hr post injection. Value shown is %ID/g of tissue; assay type: ADME, organism-based, Kidney; settings: in vivo
Rattus norvegicus [41] = species: Rattus norvegicus; assay: Distribution of [123I]-label in rat brain (frontal cortex) was reported at 60 min post injection. Value shown is %ID/g of tissue; assay type: ADME, organism-based; settings: in vivo, 1 h
Rattus norvegicus [42] = species: Rattus norvegicus; assay: Biodistribution of [123I]-label in rat kidneys was reported at 2 hr post injection. Value shown is %ID/g of tissue; assay type: ADME, organism-based, Kidney; settings: in vivo
Rattus norvegicus [43] = species: Rattus norvegicus; assay: Biodistribution of [123I]-label in rat thyroid was reported at 24 hr post injection. Value shown is %ID/organ; assay type: ADME, organism-based, Thyroid gland; settings: in vivo
Rattus norvegicus [44] = species: Rattus norvegicus; assay: Biodistribution of [123I]-label in rat intestine was reported at 4 hr post injection. Value shown is %ID/g of tissue; assay type: ADME, organism-based; settings: in vivo

Chain of D(2) dopamine receptor (P14416 whole entry): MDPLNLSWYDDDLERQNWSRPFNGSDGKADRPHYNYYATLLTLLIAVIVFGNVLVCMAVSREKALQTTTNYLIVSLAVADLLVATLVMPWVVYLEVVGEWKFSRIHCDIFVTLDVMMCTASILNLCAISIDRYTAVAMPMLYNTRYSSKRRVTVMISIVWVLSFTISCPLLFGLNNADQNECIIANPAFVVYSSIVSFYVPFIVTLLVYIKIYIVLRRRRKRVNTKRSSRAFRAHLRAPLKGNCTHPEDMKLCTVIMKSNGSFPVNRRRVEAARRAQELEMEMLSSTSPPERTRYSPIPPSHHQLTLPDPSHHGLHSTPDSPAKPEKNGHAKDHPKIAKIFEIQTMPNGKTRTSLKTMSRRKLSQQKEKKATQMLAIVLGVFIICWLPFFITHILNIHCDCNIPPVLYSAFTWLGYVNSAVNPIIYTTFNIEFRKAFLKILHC

## N#Cc1ccc(OCC2CCN(C/C=C/I)CC2)cc1
Rattus norvegicus [1]
  ID/g: 0.93%
Rattus norvegicus [2]
  ID/g: 0.22%
Rattus norvegicus [3]
  ID/g: 1.21%
Rattus norvegicus [4]
  ID/g: 1.06%
Rattus norvegicus [5]
  ID/g: 6.35%
Rattus norvegicus [6]
  ID/g: 3.14%
Rattus norvegicus [7]
  ID/g: 0.65%
Rattus norvegicus [8]
  ID/g: 0.55%
Rattus norvegicus [9]
  ID/g: 1.28%
Rattus norvegicus [10]
  ID: 0.3%
Rattus norvegicus [11]
  ID/g: 0.03%
Rattus norvegicus [12]
  ID/g: 1.18%
Rattus norvegicus [13]
  ID/g: 1.17%
Rattus norvegicus [14]
  ID/g: 1.43%
Rattus norvegicus [15]
  ID/g: 0.23%
Rattus norvegicus [16]
  ID/g: 1.31%
Rattus norvegicus [17]
  ID: 1.61%
Rattus norvegicus [18]
  ID/g: 0.33%
Sigma 2 receptor
  Ki: 0.0388 µM
Rattus norvegicus [19]
  ID/g: 0.09%
Rattus norvegicus [20]
  ID/g: 0.29%
Rattus norvegicus [21]
  ID/g: 0.18%
Rattus norvegicus [22]
  ID: 1.96%
Rattus norvegicus [23]
  ID/g: 1.01%
Rattus norvegicus [24]
  ID/g: 0.79%
[25]
  Ki: > 10 µM
D(2) dopamine receptor
  Ki: > 10 µM
Rattus norvegicus [26]
  ID/g: 1.64%
Rattus norvegicus [27]
  ID/g: 1.09%
Rattus norvegicus [28]
  ID/g: 0.81%
Rattus norvegicus [29]
  ID/g: 0.5%
Rattus norvegicus [30]
  ID/g: 0.87%
Rattus norvegicus [31]
  ID/g: 1.09%
Rattus norvegicus [32]
  ID/g: 0.01%
Rattus norvegicus [33]
  ID/g: 0.02%
Rattus norvegicus [34]
  ID/g: 1.03%
Rattus norvegicus [35]
  ID/g: 0.05%
Rattus norvegicus [36]
  ID/g: 1%
Rattus norvegicus [37]
  ID/g: 0.2%
Rattus norvegicus [38]
  ID/g: 0.67%
Rattus norvegicus [39]
  ID/g: 0.45%
Rattus norvegicus [40]
  ID/g: 0.59%
Rattus norvegicus [41]
  ID/g: 1.29%
Rattus norvegicus [42]
  ID/g: 1.3%
Rattus norvegicus [43]
  ID: 1.19%
Rattus norvegicus [44]
  ID/g: 0.81%
